± gives the standard deviation of the averaged measurements.
Assays:
Assay in all cases: level (log10 ratio to DMSO vehicle control); higher = higher biomarker level / cell amount than vehicle control
[1] = compound: O=S(=O)(O)CCC(F)(F)C(F)(F)C(F)(F)C(F)(F)C(F)(F)C(F)(F)F [6:2 Fluorotelomer sulfonic acid]; conditions: in DMSO
Experimental: (§1)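 BioMAP Diversity Plus panel of 12 human primary cell co-culture systems (3C, 4H, LPS, SAg, BT, BF4T, BE3C, CASM3C, HDF3CGF, KF3CT, MyoF, Mphg). Compounds were added 1 h before stimulation and left for 24 h (MyoF 48 h; BT 72 h for soluble read-outs or 6 d for IgG). Biomarkers were read by ELISA, cytotoxicity by SRB, PBMC viability and proliferation by Alamar Blue. Each well value was divided by the mean of 8 DMSO control wells on the same plate and log10 transformed; duplicate blinded samples were tested at 4 concentrations.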

[2] = compound: FC(F)(F)C(F)(F)C(F)(F)CC1CO1 [1H,1H-Heptafluorobutyl epoxide]; conditions: in DMSO
Experimental: as §1

[3] = compound: NS(=O)(=O)C(F)(F)C(F)(F)C(F)(F)C(F)(F)C(F)(F)C(F)(F)F [Perfluorohexanesulfonamide]; conditions: in DMSO
Experimental: as §1

[4] = compound: O=S(=O)(O)C(F)(F)C(F)(F)C(F)(F)C(F)(F)C(F)(F)C(F)(F)C(F)(F)C(F)(F)C(F)(F)C(F)(F)F [Sodium perfluorodecanesulfonate]; conditions: in DMSO
Experimental: as §1

[5] = compound: NC(=O)C(F)(F)C(F)(F)C(F)(F)C(F)F; conditions: in DMSO
Experimental: as §1

Heptafluorobutyl iodide = compound: FC(F)(F)C(F)(F)C(F)(F)CI [Heptafluorobutyl iodide]; conditions: in DMSO
Experimental: as §1

[6] = compound: O=C(O)C=CC(F)(C(F)(F)F)C(F)(F)F [3-(Perfluoroisopropyl)-2-propenoic acid]; conditions: in DMSO
Experimental: as §1

[7] = compound: FC(F)(F)C(F)(F)C(F)(F)C(F)(F)C(F)(F)C(F)(F)CC1CO1 [3-(Perfluorohexyl)-1,2-epoxypropane]; conditions: in DMSO
Experimental: as §1

[8] = compound: O=C(O)C(F)(F)C(F)(F)C(F)(F)C(F)(F)C(F)(F)C(F)(F)C(F)(F)C(F)(F)C(F)(F)C(F)F [11-H-Perfluoroundecanoic acid]; conditions: in DMSO
Experimental: as §1

[9] = compound: FC(F)(F)C(F)(F)C(F)(F)C(F)(F)C(F)(F)C(F)(F)C(F)(F)I [1-Iodopentadecafluoroheptane]; conditions: in DMSO
Experimental: as §1

[10] = compound: O=S(=O)(Cl)C(F)(F)C(F)(F)C(F)(F)C(F)(F)C(F)(F)C(F)(F)C(F)(F)C(F)(F)F [Perfluoro-1-octanesulfonyl chloride]; conditions: in DMSO
Experimental: as §1

[11] = compound: C=CC(=O)OCC(F)(F)C(F)(F)C(F)(F)COC(=O)C=C [1H,1H,5H,5H-Perfluoro-1,5-pentanediol diacrylate]; conditions: 6700 nM; in DMSO
Experimental: as §1

Octafluoroadipamide = compound: NC(=O)C(F)(F)C(F)(F)C(F)(F)C(F)(F)C(N)=O [Octafluoroadipamide]; conditions: in DMSO
Experimental: as §1

[12] = compound: FC(F)(F)C(F)(F)CNCC(F)(F)C(F)(F)F [Bis(1H,1H-perfluoropropyl)amine]; conditions: in DMSO
Experimental: as §1

Hexafluoroamylene glycol = compound: OCC(F)(F)C(F)(F)C(F)(F)CO [Hexafluoroamylene glycol]; conditions: in DMSO
Experimental: as §1

[13] = compound: C=C(C)C(=O)OCCC(F)(F)C(F)(F)C(F)(F)C(F)(F)C(F)(F)C(F)(F)F [6:2 Fluorotelomer methacrylate]; conditions: in DMSO
Experimental: as §1

Nonafluoropentanamide = compound: NC(=O)C(F)(F)C(F)(F)C(F)(F)C(F)(F)F [Nonafluoropentanamide]; conditions: in DMSO
Experimental: as §1

[14] = compound: COC(=O)C(F)(F)C(F)(F)OC(F)(C(F)(F)F)C(F)(F)OC(F)=C(F)F [Methyl perfluoro(3-(1-ethenyloxypropan-2-yloxy)propanoate)]; conditions: in DMSO
Experimental: as §1

[15] = compound: O=S(=O)(F)C(F)(F)C(F)(F)C(F)(F)C(F)(F)C(F)(F)C(F)(F)C(F)(F)C(F)(F)F [Perfluorooctanesulfonyl fluoride]; conditions: in DMSO
Experimental: as §1

LPS:CD40
level (log10) ([1]; 6700 nM): 0.025 ± 0.048 | level (log10) ([1]; 20000 nM): 0.0165 ± 0.037 | level (log10) ([1]; 60000 nM): -0.015 ± 0.024 | level (log10) ([2]; 6700 nM): 0.0165 ± 0.054 | level (log10) ([2]; 20000 nM): 0.0105 ± 0.053 | level (log10) ([2]; 60000 nM): 0.026 ± 0.024 | level (log10) ([3]; 6700 nM): 0.005 ± 0.068 | level (log10) ([3]; 20000 nM): -0.045 ± 0.09 | level (log10) ([3]; 60000 nM): -0.191 ± 0.04 | level (log10) ([4]; 1500 nM): -0.017 ± 0.024 | level (log10) ([4]; 4400 nM): -0.028 ± 0.0099 | level (log10) ([4]; 13000 nM): -0.0525 ± 0.0078 | level (log10) ([4]; 40000 nM): -0.242 ± 0.026 | level (log10) ([5]; 6700 nM): -0.0125 ± 0.029 | level (log10) ([5]; 20000 nM): -0.0045 ± 0.018 | level (log10) ([5]; 60000 nM): -0.03 ± 0.017 | level (log10) (Heptafluorobutyl iodide; 6700 nM): -0.045 ± 0.018 | level (log10) (Heptafluorobutyl iodide; 20000 nM): -0.0035 ± 0.013 | level (log10) (Heptafluorobutyl iodide; 60000 nM): 0.001 ± 0.0057 | level (log10) ([6]; 6700 nM): -0.008 ± 0.0085 | level (log10) ([6]; 20000 nM): 0.008 ± 0.048 | level (log10) ([6]; 60000 nM): -0.017 ± 0.079 | level (log10) ([7]; 6700 nM): -0.0115 ± 0.012 | level (log10) ([7]; 20000 nM): 0.01 ± 0.014 | level (log10) ([7]; 60000 nM): -0.0045 ± 0.015 | level (log10) ([8]; 6700 nM): -0.0115 ± 0.015 | level (log10) ([8]; 20000 nM): -0.0505 ± 0.03 | level (log10) ([9]; 6700 nM): 0.0645 ± 0.11 | level (log10) ([9]; 20000 nM): -0.006 ± 0.15 | level (log10) ([10]; 6700 nM): -0.0175 ± 0.081 | level (log10) ([10]; 20000 nM): -0.0145 ± 0.042 | level (log10) ([10]; 60000 nM): -0.027 ± 0.0042 | level (log10) [11]: -0.209 ± 0.024 | level (log10) (Octafluoroadipamide; 6700 nM): -0.044 ± 0.016 | level (log10) (Octafluoroadipamide; 20000 nM): -0.022 ± 0.035 | level (log10) (Octafluoroadipamide; 60000 nM): 0 ± 0.0028 | level (log10) ([12]; 6700 nM): 0.041 ± 0.041 | level (log10) ([12]; 20000 nM): -0.0115 ± 0.047 | level (log10) ([12]; 60000 nM): -0.0155 ± 0.025 | level (log10) (Hexafluoroamylene glycol; 6700 nM): 0.035 ± 0.024 | level (log10) (Hexafluoroamylene glycol; 20000 nM): 0.0385 ± 0.04 | level (log10) (Hexafluoroamylene glycol; 60000 nM): 0.028 ± 0.04 | level (log10) ([13]; 6700 nM): -0.022 ± 0.045 | level (log10) ([13]; 20000 nM): -0.04 ± 0.024 | level (log10) ([13]; 60000 nM): -0.0335 ± 0.11 | level (log10) (Nonafluoropentanamide; 6700 nM): 0.002 ± 0.038 | level (log10) (Nonafluoropentanamide; 20000 nM): -0.008 ± 0.068 | level (log10) (Nonafluoropentanamide; 60000 nM): 0.0015 ± 0.035 | level (log10) ([14]; 6700 nM): 0.0235 ± 0.035 | level (log10) ([14]; 20000 nM): -0.0365 ± 0.022 | level (log10) ([15]; 6700 nM): 0.031 ± 0.12 | level (log10) ([15]; 20000 nM): 0.0455 ± 0.094 | level (log10) ([15]; 60000 nM): 0.033 ± 0.1

lMphg:CXCL8/IL-8
level (log10) ([1]; 6700 nM): -0.0115 ± 0.005 | level (log10) ([1]; 20000 nM): 0.022 ± 0.014 | level (log10) ([1]; 60000 nM): 0.0725 ± 0.0092 | level (log10) ([2]; 6700 nM): -0.0265 ± 0.015 | level (log10) ([2]; 20000 nM): -0.019 ± 0.021 | level (log10) ([2]; 60000 nM): -0.0105 ± 0.029 | level (log10) ([3]; 6700 nM): 0.05 ± 0.014 | level (log10) ([3]; 20000 nM): 0.083 ± 0.011 | level (log10) ([3]; 60000 nM): 0.146 ± 0.0085 | level (log10) ([4]; 1500 nM): 0.0185 ± 0.032 | level (log10) ([4]; 4400 nM): 0.0015 ± 0.005 | level (log10) ([4]; 13000 nM): 0.042 ± 0.0071 | level (log10) ([4]; 40000 nM): 0.131 ± 0.013 | level (log10) ([5]; 6700 nM): -0.0235 ± 0.0078 | level (log10) ([5]; 20000 nM): -0.0225 ± 0.028 | level (log10) ([5]; 60000 nM): 0.0185 ± 0.047 | level (log10) (Heptafluorobutyl iodide; 6700 nM): -0.0335 ± 0.028 | level (log10) (Heptafluorobutyl iodide; 20000 nM): -0.0275 ± 0.00071 | level (log10) (Heptafluorobutyl iodide; 60000 nM): -0.0415 ± 0.0078 | level (log10) ([6]; 6700 nM): -0.0225 ± 0.0021 | level (log10) ([6]; 20000 nM): -0.006 ± 0.0028 | level (log10) ([6]; 60000 nM): 0.0415 ± 0.054 | level (log10) ([7]; 6700 nM): -0.0215 ± 0.0035 | level (log10) ([7]; 20000 nM): -0.0125 ± 0.019 | level (log10) ([7]; 60000 nM): 0.04 ± 0.05 | level (log10) ([8]; 6700 nM): -0.0045 ± 0.0078 | level (log10) ([8]; 20000 nM): -0.031 ± 0.0042 | level (log10) ([9]; 6700 nM): -0.018 ± 0.0071 | level (log10) ([9]; 20000 nM): 0.0165 ± 0.019 | level (log10) ([10]; 6700 nM): -0.002 ± 0.017 | level (log10) ([10]; 20000 nM): 0.0335 ± 0.00071 | level (log10) ([10]; 60000 nM): 0.115 ± 0.061 | level (log10) [11]: 0.03 ± 0.0099 | level (log10) (Octafluoroadipamide; 6700 nM): 0.003 ± 0.054 | level (log10) (Octafluoroadipamide; 20000 nM): -0.0095 ± 0.069 | level (log10) (Octafluoroadipamide; 60000 nM): 0.0455 ± 0.026 | level (log10) ([12]; 6700 nM): 0 ± 0.011 | level (log10) ([12]; 20000 nM): 0.0075 ± 0.069 | level (log10) ([12]; 60000 nM): -0.0035 ± 0.053 | level (log10) (Hexafluoroamylene glycol; 6700 nM): 0.014 ± 0.021 | level (log10) (Hexafluoroamylene glycol; 20000 nM): -0.0215 ± 0.016 | level (log10) (Hexafluoroamylene glycol; 60000 nM): 0.0185 ± 0.06 | level (log10) ([13]; 6700 nM): 0.0275 ± 0.005 | level (log10) ([13]; 20000 nM): 0.0205 ± 0.0092 | level (log10) ([13]; 60000 nM): 0.0425 ± 0.026 | level (log10) (Nonafluoropentanamide; 6700 nM): 0.012 ± 0.041 | level (log10) (Nonafluoropentanamide; 20000 nM): 0.005 ± 0.02 | level (log10) (Nonafluoropentanamide; 60000 nM): 0.027 ± 0.014 | level (log10) ([14]; 6700 nM): 0.135 | level (log10) ([14]; 20000 nM): 0.211 ± 0.014 | level (log10) ([15]; 6700 nM): 0.0275 ± 0.0078 | level (log10) ([15]; 20000 nM): 0.0145 ± 0.013 | level (log10) ([15]; 60000 nM): 0.0335 ± 0.011

— the supplement of paper PMC10331698
